The results in this text go back to patent US20220273659A1, “HETEROCYCLIC COMPOUNDS AS KINASE INHIBITORS” (NUVATION BIO INC., priority 2019, published 2022).

In experiment [1] the test system is MCF-7-PR (palbociclib-resistant MCF-7) cells. The experiment is described as follows: Cell viability in palbociclib-resistant cell line. The class given is cell-based. Particulars: for IC50: Homo sapiens, MCF7, Table 5, palbociclib-resistant cell line maintained at about 850 nM palbociclib. The method, then: Cells were treated with test compounds at 7 to 9 concentrations within a desired concentration range (e.g. 1.1 nM-10 μM) on day 2 by series diluting the test compound stock solution (10 mM in DMSO) with culture medium. Treatment duration was 24 Hr for BT-549 cells and 144 Hr (with a medium change at 72 Hr) for MCF-7 and DU4475 cells. Cell viability was assessed by Cell Titer-Glo® as recommended by Promega (Cat. No.: G7572), or by resazurin assay (Sigma Aldrich, Cat. No.: R7017) post treatment.
Cell viability data were plotted using GraphPad Prism (GraphPad Software, Inc., San Diego, Calif.). In addition, a nonlinear regression model with a sigmoidal dose response and variable slope within GraphPad Prism was used to calculate the IC50 value of individual test compounds.
The effects of test compounds in a palbociclib-resistant cell line and a parental, non-resistant cell line were compared. The palbociclib-resistant cell line (“MCF-7-PR”) was derived from the parental, non-resistant cell line (MCF-7 breast adenocarcinoma cells) by culture of cells over a period of three months in increasing concentrations of palbociclib, starting from about 350 nM and ending at about 850 nM, the final concentration at which they were then maintained in culture. The MCF-7-PR cells were checked using a cell viability assay to confirm that they had at least 5-fold resistance to palbociclib compared to parental MCF-7 cells, as measured by an increase in the cell viability IC50 values. Assessment of cell viability following treatment with palbociclib or test compounds was performed according to the method described above for MCF-7 cells.

Experiment [2] concerns the target T1, CDK6 (Homo sapiens, UniProt Q00534).
T1 construct: purchased Invitrogen PR8422B
The experiment is described as follows: In vitro kinase inhibition IC50, luminescence (ADP Glo), retinoblastoma substrate. The class given is biochemical. The note with it: read-out: CDK6/D1 IC50. In outline:
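IC50 derived by four-parameter logistic fit of percent inhibition, read as ADP-Glo luminescence. Reactions: 5 nM CDK6, 1 μM retinoblastoma, 25 μM ATP, test compound 0.1–200 nM final, 2 h at room temperature.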
In general terms: ADP-Glo first removes unused ATP, then detects ADP through luciferase.

For experiment [3], the target named is T2, CDK4 (Homo sapiens, UniProt P11802).
T2 construct: purchased Invitrogen PR8064A
The description is as above. It counts as biochemical. Particulars: read-out: CDK4/D1 IC50. In outline: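 Inhibition of CDK4 was quantified by ADP Glo luminescence with retinoblastoma as substrate. Reactions held 5 nM kinase, 1 μM retinoblastoma and 25 μM ATP and ran 2H at room temperature. A Synergy Neo reader took signals 15 min and 45 min after detection reagent, and percent inhibition was fitted to a four-parameter logistic model in XLfit to obtain IC50.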

The target of experiment [4] is T3, PI3Kδ kinase (Homo sapiens, UniProt O00329).
T3 construct: purchased Reaction Biology Corporation (assay service)
The experiment is described as follows: PI3Kδ kinase assay (ADP-Glo, Reaction Biology). It counts as biochemical. In short, it runs like this: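 Kinase in Tris-HCl 40 mM pH 7.5, MgCl2 20 mM, orthovanadate 3 mM, DTT 2 mM, 0.05% CHAPS, 1% DMSO, preincubated 10 min at room temperature with compound (about 0.5 nM–100 μM). ATP started a 30-min reaction at 30 °C. ADP-Glo luminescence converted to μM ADP via standard curve; IC50 from nonlinear regression.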

The test system of experiment [5] is Rb Ser780 phosphorylation in MCF-7 cells. The experiment can be described thus: Determination of pRb levels (Ser780 phosphorylation, ELISA). Particulars: Homo sapiens. The class given is cell-based. The method, then:
Hypo-phosphorylation of the retinoblastoma protein (Rb) by cyclin D:Cdk4/6 complexes results in active Rb, which is a clinically relevant biomarker associated with CDK4 or CDK6 inhibition. As a confirmatory measure of functional activity of CDK4/6, the Ser780 phosphorylation state of Rb was assessed. MCF-7 cells were plated at 2.5×10^5 to 3.0×10^6 cells/well in 6-well cell-culture plates and incubated at 37° C. for 24H in MEM medium supplemented with 10% FBS. Cells were treated for 24H with a medium containing test compound at various concentrations (e.g., 0.01, 0.1, […]) or with DMSO (≤1%) in duplicate. After incubation period, the media was removed, and cells were rinsed once with ice-cold PBS and lysed with 0.2 mL of Cell Lysis Buffer containing 1 mM PMSF and Protease Inhibitor. Protein concentration was estimated following Bradford method. The lysis and the Rb measurements were performed following the manufacturer's ELISA kit protocols and buffers (Cell Signaling Technology, Cat. No.: 13016C). Rb inhibition of test compounds was calculated as percentage of vehicle control. In some cases, a nonlinear regression model with a sigmoidal dose response and variable slope within GraphPad Prism was used to calculate the IC50 value of Rb inhibition for individual test compounds.
(In general: ELISA stands for enzyme-linked immunosorbent assay.)

Experiment [6] has as its target T4, FMS kinase (Homo sapiens, UniProt P07333).
T4 construct: purchased Invitrogen (Life Technologies)
The experiment can be described thus: LanthaScreen Eu Kinase Binding Assay (ATP, fluorescent-PolyGT substrate). It counts as biochemical. In outline:
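TR-FRET read (ex 340, em 495 and 520 nm) after EDTA/Tb-labelled antibody stop; IC50 by four-parameter logistic fit of percent inhibition. Reaction: 1.25 nM FMS, 10 min compound preincubation (3-fold series), then 1 h at room temperature with 10 μM ATP and 200 nM fluorescent PolyGT.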
A general note: In TR-FRET formats the signal depends on donor and acceptor labels being close together.

Experiment [7] relates to MCF-7 breast adenocarcinoma cells. The experiment is described as follows: Cancer cell proliferation assay, single agent (cell viability). The class given is cell-based. The note with it: Homo sapiens. In outline:
(§1)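 Viability read by resazurin or CellTiter-Glo after 24 h treatment (BT-549) or 144 h with a 72 h medium change (MCF-7, DU4475). Compounds tested at 7–9 concentrations, e.g. 1.1 nM–10 μM, added the day after seeding; IC50 by nonlinear sigmoidal regression.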

Experiment [8] concerns the target T5, CDK1 (cyclin B) (Homo sapiens, UniProt P06493).
T5 construct: purchased Invitrogen Life Technologies (assay service)
The experiment is described as follows: Z'-LYTE kinase assay. It counts as biochemical. The method, then:
The plates were shaken for 30 seconds, and incubated for 60 minutes at room temperature. […] The plates were read on fluorescence plate reader with Dual emission at 445 nm and 520 nm.
The following equations were used for Z′-LYTE™ Screening Assay Data Analysis.

Experiment [9] concerns the target T6, CDK9 (cyclin K) (Homo sapiens, UniProt P50750).
T6 construct: purchased Invitrogen Life Technologies (assay service)
The experiment can be described thus: LanthaScreen Eu Kinase Binding Assay. The method, then:
0.16 μL of 100×test compound in 100% DMSO (at specific solutions) were mixed with 3.84 μL of Kinase Buffer (50 mM HEPES pH 7.5, 0.01% BRIJ-35, 10 mM MgCl2, 1 mM EGTA), 8.0 μL of 2× Kinase (5 nM)/Antibody (Eu-anti-His, 2 nM) Mixture and 4.0 μL of 4×Tracer (Tracer 236, 100 nM). The plates were shaken for 30 seconds, and incubated for 60 minutes at room temperature. The plates were read on fluorescence plate reader with Dual emission at 615 nm and 665 nm.
The following equations were used for LanthaScreen Eu Kinase Binding Assay Data Analysis. Percent inhibition (100-% activity) was fitted to the “four-parameter logistic model” in XLfit for determination of IC50 values.

In experiment [10] the test system is DU4475 breast carcinoma cells. The experiment can be described thus: Cancer cell proliferation assay, single agent (cell viability). The class given is cell-based. The note with it: Homo sapiens, DU-4475; Table 4; Rb negative; treatment 144 Hr with medium change at 72 Hr; Cell Titer-Glo or resazurin. In outline:
as §1

Experiment [11] addresses T7, CDK2 (cyclin A) (Homo sapiens, UniProt P24941).
T7 construct: purchased Invitrogen Life Technologies (assay service)
The experiment can be described thus: Z'-LYTE kinase assay. The class given is biochemical. In outline: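 FRET-based Z′-LYTE read-out using 1.22–10.3 ng CDK2/cyclin A with Ser/Thr 12 peptide (2 μM in the 2× mix) and ATP (31 μM as the 4× solution), in HEPES pH 7.5, MgCl2, EGTA and BRIJ-35, for 60 min at room temperature. After 1 h of development, the 445/520 nm emission was read, and percent inhibition was fitted to a four-parameter logistic curve for IC50.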

[12] abbreviates: MCF7, Table 4, Rb positive, treatment 144 Hr with medium change at 72 Hr, Cell Titer-Glo or resazurin.
Where [13] appears, read: MCF7, Table 5, parental, non-resistant cell line compared with MCF-7-PR.

Each structure is given as a SMILES string. Like-named read-outs stand apart in the source and are kept apart here.

T2 sequence (P11802 whole entry): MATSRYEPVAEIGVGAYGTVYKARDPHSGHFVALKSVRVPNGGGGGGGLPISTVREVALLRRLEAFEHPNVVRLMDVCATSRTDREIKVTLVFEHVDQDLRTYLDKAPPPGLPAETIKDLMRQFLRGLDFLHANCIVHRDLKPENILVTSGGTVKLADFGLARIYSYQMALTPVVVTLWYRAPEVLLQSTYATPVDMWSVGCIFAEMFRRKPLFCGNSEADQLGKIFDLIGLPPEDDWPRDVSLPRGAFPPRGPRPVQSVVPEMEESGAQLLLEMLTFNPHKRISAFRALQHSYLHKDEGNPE
T2 sequence (P24385 whole entry partner): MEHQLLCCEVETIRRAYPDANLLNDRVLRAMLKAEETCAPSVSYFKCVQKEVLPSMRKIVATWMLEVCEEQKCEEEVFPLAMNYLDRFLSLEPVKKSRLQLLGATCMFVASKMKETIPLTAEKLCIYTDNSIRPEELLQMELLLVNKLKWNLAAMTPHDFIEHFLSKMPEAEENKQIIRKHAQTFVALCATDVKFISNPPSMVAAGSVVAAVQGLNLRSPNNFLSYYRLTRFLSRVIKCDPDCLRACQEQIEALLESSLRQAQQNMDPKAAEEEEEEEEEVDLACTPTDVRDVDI
T1 sequence (Q00534 whole entry): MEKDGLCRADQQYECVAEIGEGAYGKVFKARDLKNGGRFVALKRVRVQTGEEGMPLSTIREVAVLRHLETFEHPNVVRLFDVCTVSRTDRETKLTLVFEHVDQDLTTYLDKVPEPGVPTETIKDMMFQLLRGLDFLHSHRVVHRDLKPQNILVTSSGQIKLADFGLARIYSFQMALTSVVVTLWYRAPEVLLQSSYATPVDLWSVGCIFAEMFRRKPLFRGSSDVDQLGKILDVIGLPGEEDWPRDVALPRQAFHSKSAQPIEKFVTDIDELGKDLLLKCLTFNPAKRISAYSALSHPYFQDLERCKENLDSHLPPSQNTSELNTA
T1 sequence (P24385 whole entry partner): as the sequence (P24385 whole entry partner) above
T4 sequence (P07333 20-972): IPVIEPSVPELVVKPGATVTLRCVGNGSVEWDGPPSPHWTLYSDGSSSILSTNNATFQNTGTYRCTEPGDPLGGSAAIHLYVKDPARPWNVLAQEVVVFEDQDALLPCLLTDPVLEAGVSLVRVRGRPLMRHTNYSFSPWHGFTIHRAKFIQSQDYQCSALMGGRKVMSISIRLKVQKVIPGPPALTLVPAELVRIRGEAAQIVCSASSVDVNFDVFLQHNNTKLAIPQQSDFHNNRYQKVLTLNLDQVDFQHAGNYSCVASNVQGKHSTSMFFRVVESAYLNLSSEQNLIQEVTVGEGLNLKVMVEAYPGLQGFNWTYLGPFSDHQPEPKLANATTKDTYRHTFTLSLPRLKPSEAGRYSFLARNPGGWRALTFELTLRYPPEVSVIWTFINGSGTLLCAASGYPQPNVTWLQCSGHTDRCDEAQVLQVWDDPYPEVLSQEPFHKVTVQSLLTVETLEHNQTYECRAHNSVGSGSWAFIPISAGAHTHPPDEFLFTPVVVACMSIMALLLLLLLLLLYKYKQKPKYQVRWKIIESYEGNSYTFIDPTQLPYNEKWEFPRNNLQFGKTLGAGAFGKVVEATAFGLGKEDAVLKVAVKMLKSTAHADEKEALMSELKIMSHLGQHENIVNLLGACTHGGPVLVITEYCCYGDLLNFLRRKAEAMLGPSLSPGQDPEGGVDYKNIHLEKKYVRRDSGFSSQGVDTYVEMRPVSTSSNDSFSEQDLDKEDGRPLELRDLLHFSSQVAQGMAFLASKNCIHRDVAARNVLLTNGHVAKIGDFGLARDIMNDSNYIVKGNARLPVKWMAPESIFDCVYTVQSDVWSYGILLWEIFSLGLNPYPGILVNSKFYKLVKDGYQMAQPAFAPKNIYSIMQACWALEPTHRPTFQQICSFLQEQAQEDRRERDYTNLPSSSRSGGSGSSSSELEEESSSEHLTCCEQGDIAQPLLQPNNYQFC
T5 sequence (P06493 whole entry): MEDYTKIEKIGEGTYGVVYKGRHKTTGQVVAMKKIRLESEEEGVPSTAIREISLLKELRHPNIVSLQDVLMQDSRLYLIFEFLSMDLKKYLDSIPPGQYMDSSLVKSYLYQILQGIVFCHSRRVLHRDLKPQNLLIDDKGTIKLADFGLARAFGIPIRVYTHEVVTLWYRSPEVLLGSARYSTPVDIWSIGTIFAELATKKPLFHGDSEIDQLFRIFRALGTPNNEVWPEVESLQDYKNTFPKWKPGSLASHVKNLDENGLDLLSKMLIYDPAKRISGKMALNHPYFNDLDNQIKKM
T5 sequence (P14635 whole entry partner): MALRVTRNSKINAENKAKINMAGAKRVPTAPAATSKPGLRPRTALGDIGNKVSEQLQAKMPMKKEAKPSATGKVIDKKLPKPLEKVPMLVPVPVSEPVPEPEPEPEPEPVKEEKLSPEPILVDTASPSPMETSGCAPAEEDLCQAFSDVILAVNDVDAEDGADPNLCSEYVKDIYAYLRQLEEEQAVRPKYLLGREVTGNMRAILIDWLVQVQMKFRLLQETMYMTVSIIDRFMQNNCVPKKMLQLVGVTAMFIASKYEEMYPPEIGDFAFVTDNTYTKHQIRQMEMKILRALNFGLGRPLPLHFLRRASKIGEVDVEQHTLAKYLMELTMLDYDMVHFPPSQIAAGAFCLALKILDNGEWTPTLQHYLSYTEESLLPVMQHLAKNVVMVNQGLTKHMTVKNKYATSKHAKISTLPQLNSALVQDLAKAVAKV
T3 sequence (O00329 whole entry): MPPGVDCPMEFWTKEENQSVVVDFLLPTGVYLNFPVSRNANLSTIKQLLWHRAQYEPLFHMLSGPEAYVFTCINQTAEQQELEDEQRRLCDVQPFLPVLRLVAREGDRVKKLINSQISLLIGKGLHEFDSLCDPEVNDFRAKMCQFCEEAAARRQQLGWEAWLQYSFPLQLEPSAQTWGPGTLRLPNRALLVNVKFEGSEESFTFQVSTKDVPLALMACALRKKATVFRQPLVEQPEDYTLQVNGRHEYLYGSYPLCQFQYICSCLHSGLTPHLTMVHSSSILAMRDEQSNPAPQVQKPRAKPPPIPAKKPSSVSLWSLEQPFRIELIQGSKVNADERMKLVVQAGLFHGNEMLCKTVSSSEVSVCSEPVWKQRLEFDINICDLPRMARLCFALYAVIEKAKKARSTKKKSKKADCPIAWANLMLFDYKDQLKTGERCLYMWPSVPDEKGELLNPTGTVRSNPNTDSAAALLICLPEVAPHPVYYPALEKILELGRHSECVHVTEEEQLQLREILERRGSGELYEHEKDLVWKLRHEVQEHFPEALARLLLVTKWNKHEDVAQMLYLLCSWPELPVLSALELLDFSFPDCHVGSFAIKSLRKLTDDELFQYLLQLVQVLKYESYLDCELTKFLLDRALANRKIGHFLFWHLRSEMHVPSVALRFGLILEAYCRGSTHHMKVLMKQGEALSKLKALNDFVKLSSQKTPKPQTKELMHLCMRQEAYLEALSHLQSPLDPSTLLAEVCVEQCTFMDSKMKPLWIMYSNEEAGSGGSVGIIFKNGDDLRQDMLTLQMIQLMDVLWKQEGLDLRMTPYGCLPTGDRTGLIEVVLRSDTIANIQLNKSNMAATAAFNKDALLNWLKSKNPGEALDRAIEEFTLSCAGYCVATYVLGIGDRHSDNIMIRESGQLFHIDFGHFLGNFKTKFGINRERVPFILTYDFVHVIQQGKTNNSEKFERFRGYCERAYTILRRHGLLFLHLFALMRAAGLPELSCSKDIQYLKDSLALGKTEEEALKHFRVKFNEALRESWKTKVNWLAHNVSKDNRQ
T3 sequence (P27986 whole entry partner): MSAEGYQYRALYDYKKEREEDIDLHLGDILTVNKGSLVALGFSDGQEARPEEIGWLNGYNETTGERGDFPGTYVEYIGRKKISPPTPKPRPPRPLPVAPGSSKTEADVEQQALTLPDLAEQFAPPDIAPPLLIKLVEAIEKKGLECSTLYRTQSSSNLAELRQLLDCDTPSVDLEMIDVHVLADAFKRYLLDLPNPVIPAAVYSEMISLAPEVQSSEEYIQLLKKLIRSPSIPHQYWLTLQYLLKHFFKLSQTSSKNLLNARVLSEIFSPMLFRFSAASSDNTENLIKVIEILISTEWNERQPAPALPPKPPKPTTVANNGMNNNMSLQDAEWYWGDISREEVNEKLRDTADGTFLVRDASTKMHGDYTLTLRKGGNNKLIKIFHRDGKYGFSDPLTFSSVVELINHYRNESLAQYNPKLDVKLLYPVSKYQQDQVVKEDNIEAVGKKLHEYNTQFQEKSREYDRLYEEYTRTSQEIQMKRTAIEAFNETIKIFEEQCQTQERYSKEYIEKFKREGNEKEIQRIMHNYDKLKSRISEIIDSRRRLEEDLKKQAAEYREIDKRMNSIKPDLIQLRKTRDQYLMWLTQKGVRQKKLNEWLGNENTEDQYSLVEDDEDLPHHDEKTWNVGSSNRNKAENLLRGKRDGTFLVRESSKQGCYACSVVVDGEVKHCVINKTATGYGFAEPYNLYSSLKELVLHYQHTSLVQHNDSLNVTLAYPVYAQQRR

For the compound `CC(=O)c1c(C)c2cnc(Nc3ccc(N4CCNCC4)cn3)nc2n(C2CCCC2)c1=O` [palbociclib, reference compound], in experiment [1] (MCF-7-PR versus parental MCF-7), the “resistance to palbociclib compared to parental MCF-7 cells (increase in cell viability IC50)” value was “at least 5 fold”.
Broadly, the inhibition is the drop in the measured response relative to a control, in per cent. Turning to `N#Cc1cc2cnc(Nc3ccc(N4CCNCC4)cc3)nc2n(C2CCCc3ccccc32)c1=O` (stereo not shown) [Compound No. 39, 7-oxo-2-((4-(piperazin-1-yl)phenyl)amino)-8-(1,2,3,4-tetrahydronaphthalen-1-yl)-7,8-dihydropyrido[2,3-d]pyrimidine-6-carbonitrile], the IC50 was determined as 1.5 nM in experiment [2]; 2 nM in [3]; 906 nM in [4]; 7 nM in [6]; 2280 nM in experiment [7] (setting [12]). The inhibition at 0.01 µM in [5] (MCF7, 0.01 μM, 24H treatment, percentage of vehicle control) was -25%. For the same compound, the inhibition at 0.1 µM in experiment [5] (MCF7, 0.1 μM, 24H treatment, percentage of vehicle control) was 40%. For the same compound, the inhibition at 1 µM in [5] (MCF7, 1 μM, 24H treatment, percentage of vehicle control) came out at 52%.
For the compound `N#Cc1cc2cnc(Nc3ccc4c(c3)CCN(CCN)C4)nc2n(C2CCCC2)c1=O` [Compound No. 66, 2-((2-(2-aminoethyl)-1,2,3,4-tetrahydroisoquinolin-6-yl)amino)-8-cyclopentyl-7-oxo-7,8-dihydropyrido[2,3-d]pyrimidine-6-carbonitrile], the IC50 in experiment [8] (read-out: CDK1/B IC50) came out at 1720 nM; in [2] it was 6 nM; in [3] it was 7 nM; in experiment [9], 83 nM; in [10], 975 nM; in [7] (setting [12]), 568 nM. The compound also registered an IC50 in experiment [11] of 426 nM.
`N#Cc1cc2cnc(Nc3ccc(N4CCNCC4)c(Cl)c3)nc2n(C2CCCC2)c1=O` [Compound No. 30, 2-((3-chloro-4-(piperazin-1-yl)phenyl)amino)-8-cyclopentyl-7-oxo-7,8-dihydropyrido[2,3-d]pyrimidine-6-carbonitrile]: the IC50 was found to be 9.5 nM in experiment [2]; 4.5 nM in experiment [3]; 85 nM in [1]; 6 nM in experiment [6]; 110 nM in [7] (setting [12]); 115 nM in experiment [7] (setting [13]).
As for `N#Cc1cc2cnc(Nc3cnn(C4CCNCC4)c3)nc2n(C2CCCC2)c1=O` [Compound No. 50, 8-cyclopentyl-7-oxo-2-((1-(piperidin-4-yl)-1H-pyrazol-4-yl)amino)-7,8-dihydropyrido [2,3-d] pyrimidine-6-carbonitrile], the IC50 in experiment [2] came to 17 nM; in experiment [3] it was 23 nM; in experiment [5] (MCF7, 24H treatment, read-out: Inhibition of Rb phosphorylation IC50), 505 nM; in [1], 1040 nM; in experiment [6], 1 nM; in [10], 2440 nM. Moreover, the IC50 in experiment [7] (setting [12]) was found to be 395 nM; in experiment [7] (setting [13]) it was 664 nM.
In the case of `N#Cc1cc2cnc(Nc3ccc(N4CCNCC4)c(C(F)(F)F)c3)nc2n(C2CCCC2)c1=O` [Compound No. 33, 8-cyclopentyl-7-oxo-2-((4-(piperazin-1-yl)-3-(trifluoromethyl)phenyl)amino)-7,8-dihydropyrido[2,3-d]pyrimidine-6-carbonitrile], the IC50 in experiment [2] was greater than 200 nM; in [3] it was greater than 200 nM; in [4], 1660 nM; in [1], 65 nM; in experiment [6], 4.2 nM; in experiment [7] (setting [12]), 155 nM. Besides, in experiment [7] (setting [13]), the IC50 worked out at 205 nM.
In the case of `CS(=O)(=O)N1CCC(Nc2ncc3cc(C#N)c(=O)n([C@H]4C[C@@H]5CC[C@H]4C5)c3n2)CC1` (racemic) [Compound No. 353, 8-((1S,2S,4R)-bicyclo[2.2.1]heptan-2-yl)-2-(1-(methylsulfonyl)piperidin-4-ylamino)-7-oxo-7,8-dihydropyrido[2,3-d]pyrimidine-6-carbonitrile], the IC50 in [8] is greater than 2600 nM; in experiment [2], 13 nM; in [3], 15 nM; in experiment [1] it was 769 nM; in experiment [6] it was 69 nM; in [10] it was 900 nM. Also, the IC50 in [7] (setting [12]) turned out to be 515 nM; in [7] (setting [13]), 347 nM; in [11], 10 nM.
